From BindingDB's records for doi:10.1021/jm020588f (The Danish University of Pharmaceutical Sciences, 2003)

Assay: Effective concentration of compound was determined for electrophysiological properties on Ionotropic glutamate receptor AMPA 1 (GluR1) using […] Xenopus laevis oocytes

NC(Cc1o[nH]c(=O)c1Cl)C(=O)O [(R,S)-2-amino-3-(4-chloro-3-hydroxy-5-isoxazolyl)propionate]
EC50: 4.7 µM
